Publication PMC11979273, “A phase I study to evaluate the safety, tolerability, and pharmacokinetics of HEC113995PA·H2O, a novel dual-acting serotonergic antidepressant, in healthy subjects” (Frontiers in Pharmacology, 2025)

Tests used:
[1] = Multiple ascending-dose study, safety (adverse events); assay type: in vivo
Experimental: Three drug doses (10, 20 and 40 mg) were utilized. A total of 36 healthy subjects of both genders were assigned randomly to the three groups (n = 12), with10 subjects taking HEC113995PA·H2O tablets and 2 taking placebo. The participants in the 10 mg dose group received a single dose daily in the morning after overnight fasting, or a single dose daily after a standard meal in the 20 mg and 40 mg dose groups for 10 consecutive days. Serial blood samples were collected within 0.5 h before drug administration on days 7, 8 and 9, and before and after drug administration on days 1 and 10 to determine plasma concentration and pharmacokinetic characteristics. Safety and tolerability were evaluated on days 4, 8, 13 and 15.
The trial was conducted in a dose-escalation manner, with the administration of the next dose arm only after the tolerability and safety of the previous arm had been fully evaluated. Following the assessments by both the investigator and the sponsor, the next dose level could be reverted to the previous dose group if deemed necessary. In such cases, twelve new healthy subjects (10 taking HEC113995PA·H2O tablets and 2 taking placebo) were enrolled to explore the maximum safe tolerated dose. Throughout the entire trial (including the SAD trial, FE trial and MAD trial), each subject was only allowed to participate in one dose group.
Safety indicators were assessed through adverse events (AE), clinical laboratory tests (including blood routine, blood biochemistry, urine routine), vital signs monitoring (ear temperature), pulse, respiration and blood pressure in a sitting position), 12-lead electrocardiogram (ECG) and physical examinations. Adverse events (AE) and serious adverse events (SAE) were evaluated following the criteria outlined in National Cancer Institute Common Terminology Criteria for Adverse Events (NCI-CTCAE) version 5.0.
Any adverse events that occurred in all subjects during the clinical trial were recorded with the following details: AE name, occurrence time, end time, severity, whether it was classified as a SAE, severity criteria (if applicable), treatment measures and outcomes, actions taken on investigational drug due to the AE, and the causal relationship between the AE and administrated drug, etc. Each AE was recorded separately.
The subjects were under close monitoring at the clinical research center until the sample retention and safety evaluation were completed. During the safety trial, drug intolerance of a given dose was defined as follows: grade 2 or higher drug-related AEs occurred in more than half of the subjects, or grade 3 or higher drug-related AEs occurred in more than one quarter of the subjects. The dose escalation was halted after drug intolerance occurred.

5-HT transporter = 5-HT transporter (Homo sapiens, UniProt P31645); assay: In vitro affinity and antagonistic activity for the 5-HT transporter; assay type: binding; settings: unpublished data
Chain of 5-HT transporter (P31645 whole entry, species assumed): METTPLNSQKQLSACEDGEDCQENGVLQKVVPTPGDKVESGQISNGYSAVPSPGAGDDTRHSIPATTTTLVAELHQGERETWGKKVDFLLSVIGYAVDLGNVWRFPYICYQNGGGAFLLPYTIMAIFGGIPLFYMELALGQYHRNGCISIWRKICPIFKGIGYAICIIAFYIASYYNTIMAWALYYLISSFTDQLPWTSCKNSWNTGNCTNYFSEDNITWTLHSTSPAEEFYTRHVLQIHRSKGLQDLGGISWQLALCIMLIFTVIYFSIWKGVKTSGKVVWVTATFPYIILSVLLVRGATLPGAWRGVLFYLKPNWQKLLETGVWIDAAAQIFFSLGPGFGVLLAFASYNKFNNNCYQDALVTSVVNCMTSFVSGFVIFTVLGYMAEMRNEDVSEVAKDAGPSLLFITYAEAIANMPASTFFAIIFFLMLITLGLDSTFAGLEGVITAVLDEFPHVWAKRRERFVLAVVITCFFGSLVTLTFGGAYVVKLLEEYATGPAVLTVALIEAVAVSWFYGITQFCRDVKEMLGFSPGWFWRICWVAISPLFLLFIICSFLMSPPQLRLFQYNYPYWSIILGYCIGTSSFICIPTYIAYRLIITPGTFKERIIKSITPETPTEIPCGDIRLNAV

Cc1nc(-c2cnc(N3CCN(CCCc4c[nH]c5ccc(C#N)cc45)CC3)nc2)sc1C(N)=O [HEC113995PA·H2O]
related TEAE: diarrhea ([1]; MAD 10 mg): 2 cases
related TEAE: dizziness ([1]; MAD 10 mg): 1 case
related TEAE: elevated blood triglycerides ([1]; MAD 10 mg): 2 cases
related TEAE: nausea ([1]; MAD 10 mg): 1 case
Grade 2 related AE: elevated blood triglycerides ([1]; MAD 10 mg group): 1 case
related TEAE: elevated gamma-glutamyl transferase (γ-GT) ([1]; MAD 10 mg group): 1 case
related TEAE: oral ulcer ([1]; MAD 10 mg group): 2 cases
incidence of subjects experiencing TRAEs ([1]; MAD 10 mg group, 7 subjects): 70.0%
incidence of subjects experiencing TEAE ([1]; MAD 10 mg group, 8 subjects): 80.0%
related TEAE: diarrhea ([1]; MAD 20 mg): 1 case
related TEAE: dizziness ([1]; MAD 20 mg): 1 case
related TEAE: nausea ([1]; MAD 20 mg): 3 cases
incidence of subjects experiencing TRAEs ([1]; MAD 20 mg group, 6 subjects): 66.7%
incidence of subjects experiencing TEAE ([1]; MAD 20 mg group, 8 subjects): 88.9%
related TEAE: dizziness ([1]; MAD 40 mg): 4 cases
related TEAE: elevated blood triglycerides ([1]; MAD 40 mg): 3 cases
related TEAE: nausea ([1]; MAD 40 mg): 1 case
Grade 2 related AE: elevated blood cholesterol ([1]; MAD 40 mg group): 1 case
Grade 2 related AE: elevated blood triglycerides ([1]; MAD 40 mg group): 1 case
related TEAE: elevated gamma-glutamyl transferase (γ-GT) ([1]; MAD 40 mg group): 1 case
incidence of subjects experiencing TRAEs ([1]; MAD 40 mg group, 6 subjects): 60.0%
incidence of subjects experiencing TEAE ([1]; MAD 40 mg group, 8 subjects): 80.0%
Grade 3 or higher TEAEs related to the investigational product ([1]; MAD trial): no Grade 3 or higher TEAEs
related TEAE incidence: elevated gamma-glutamyl transferase (γ-GT) ([1]; MAD, 2/29): 6.9%
related TEAE incidence: oral ulcer ([1]; MAD, 2/29): 6.9%
related TEAE incidence: hyperuricemia ([1]; MAD, 2/29, both cases in the 40 mg group): 6.9%
related TEAE incidence: diarrhea ([1]; MAD, 3/29): 10.3%
related TEAE incidence: dry mouth ([1]; MAD, 3/29, all cases in the 10 mg group): 10.3%
related TEAE incidence: headache ([1]; MAD, 3/29, exclusively observed in the 20 mg group): 10.3%
related TEAE incidence: terminal insomnia ([1]; MAD, 3/29, limited to the 20 mg group): 10.3%
related TEAE incidence: elevated blood triglycerides ([1]; MAD, 5/29): 17.2%
related TEAE incidence: nausea ([1]; MAD, 5/29): 17.2%
related TEAE incidence: dizziness ([1]; MAD, 6/29): 20.7%
incidence of Grade 2 AEs related to the investigational product ([1]; MAD, HEC113995PA·H2O group, 3 cases): 10.3%
incidence of subjects experiencing TRAEs ([1]; MAD, HEC113995PA·H2O trial group, 19 subjects, 48 TRAEs): 65.5%
incidence of subjects experiencing TEAE ([1]; MAD, HEC113995PA·H2O trial group, 24 subjects, 85 incidents): 82.8%
tolerability ([1]; healthy Chinese subjects, multiple doses range 10–40 mg daily): well tolerated
affinity and antagonistic activity for the 5-HT transporter (5-HT transporter): at the nanomolar level
